The subject of assay [1] is SW620 human colorectal cancer cells. The assay can be described thus: MTT based cell viability assay: potentiation of the growth inhibiting activity of MMS. To be noted: Homo sapiens, SW-620, 120 h, read-out: IC50 (nM), potentiation of the growth inhibiting activity of MMS, SW620 cells, 1.7 μg/ml MMS, 5 days (120 hours), MTT.
Procedure: Briefly, SW620 human colorectal cancer cells were used to measure the cell growth inhibiting activity of DNA alkylating anticancer drug MMS. […] SW620 cells were grown and maintained in RPMI1640 (Gibco) medium supplemented with 10% FBS (Hyclone). In the first day of experiment, 4000 cells were seeded to each well of a 96-well cell culture plate and incubated at 37° C. and 5% CO2 in a cell culture incubator overnight. In the next day, the cell culture medium was removed. […] The serial dilutions of the reference compounds and the compounds to be tested were made with a 1:3 and 1:10 fashion in DMSO. The 10-fold concentrated solutions of these compounds were made by mixing 10 μl of the serial dilutions in DMSO with 90 μl fresh medium. The final concentration of DMSO in the medium was 1%. The cells were incubated at 37° C. in 5% CO2 cell culture incubator for additional 5 days (120 hours). Afterwards, the 96-well cell culture plate was taken out and 20 μl of MTT solution was added to each well and incubated at 37° C. for 4 h. The medium was removed and 100 μl DMSO was added to each well. The 96-well cell culture plates were shaked adequately for 10 min and read in a Varioskan Flash plate reader (Thermo Fisher Scientific) at 520 and 690 nm. The data were analyzed by Prism 5 software (GraphPad). The obtained 520 nm absorbance readings subtracting corresponding 690 nm reading were analyzed and plotted against the Log scale of the compound concentrations.
The subject of assay [2] is Human breast cancer cell line T47D. Kind of assay: Cell based caspase-3 activity assay: potentiation of MMS induced apoptosis. To be noted: Homo sapiens, T47D, 24 h, T47D cells, 11.1 μg/ml MMS, 24 hours, intracellular caspase-3 activity; read-out: EC50 (nM), potentiation of the apoptosis inducing activity of MMS. Put shortly:
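T47D cells were exposed for 24 h to compound plus a minimally apoptotic MMS dose (medium containing 11.1 μg/ml MMS). Lysates were incubated 3 h at 37 °C with (Ac-DEVD)2-R110 caspase-3 substrate (20 μM in added buffer) and read at ex 496/em 520 nm. EC50 came from a sigmoidal fit of RFU versus log concentration.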

Structures are written as SMILES.

Take `O=C(c1cccc(Cn2c(=O)[nH]c(=O)c3cc(Cl)ccc32)c1)N1CCN(C(=O)C2CCC2)CC1` [Example 116, 6-Chloro-1-(3-(4-(cyclobutylcarbonyl)piperazine-1-carbonyl)benzyl)quinazoline-2,4(1H,3H)-dione]: the IC50 in assay [1] was found to be 48 nM. In addition, in assay [2], the EC50 (commonly the concentration giving half of the maximal effect) worked out at 13 nM.

Consider `O=C(c1cc(Cn2c(=O)[nH]c(=O)c3cc(Cl)ccc32)ccc1F)N1CCN(c2ccccn2)CC1` [Example 120, 6-Chloro-1-(4-fluoro-3-(4-(pyridin-2-yl)piperazine-1-carbonyl)benzyl)quinazoline-2,4(1H,3H)-dione], for which the IC50 in assay [1] is 42 nM. The EC50 in assay [2] stood at 8.8 nM.

`O=C(c1cccs1)N1CCN(C(=O)c2cc(Cn3c(=O)[nH]c(=O)c4cc(Cl)ccc43)ccc2F)CC1` [Example 121, 6-Chloro-1-(4-fluoro-3-(4-(thiophene-2-carbonyl)piperazine-1-carbonyl)benzyl)quinazoline-2,4(1H,3H)-dione]: the IC50 in assay [1] came to 4.5 nM. For the same compound, the EC50 in assay [2] came to 4.9 nM.

With `O=C(c1ccc(F)c(Cn2c(=O)[nH]c(=O)c3cc(Cl)ccc32)c1)N1CCN(C(=O)C2CCCCC2)CC1` [Example 125, 6-Chloro-1-(3-(4-(cyclohexylcarbonyl)piperazine-1-carbonyl)-6-fluorobenzyl)quinazoline-2,4(1H,3H)-dione], the IC50 in assay [1] turned out to be 6.7 nM. Besides, in assay [2], the concentration giving a half-maximal response (EC50) is 22 nM.

For `O=C(c1ccc(F)c(Cn2c(=O)[nH]c(=O)c3cc(Cl)ccc32)c1)N1CCN(C(=O)c2cccs2)CC1` [Example 126, 6-Chloro-1-(6-fluoro-3-(4-(thiophene-2-carbonyl)piperazine-1-carbonyl)benzyl)quinazoline-2,4(1H,3H)-dione], the IC50 in assay [1] amounted to 18 nM. The EC50 in assay [2] was 6.5 nM.

For the compound `O=C(c1cccc(Cn2c(=O)[nH]c(=O)c3c(F)cccc32)c1)N1CCN(C(=O)C2CCCCC2)CC1` [Example 129, 1-(3-(4-(Cyclohexylcarbonyl)piperazine-1-carbonyl)benzyl)-5-fluoroquinazoline-2,4(1H,3H)-dione], the IC50 in assay [1] is 18 nM. The EC50 in assay [2] stood at 49 nM.

`O=C(c1cccc(Cn2c(=O)[nH]c(=O)c3c(F)cccc32)c1)N1CCN(c2ccccn2)CC1` [Example 130, 5-Fluoro-1-(3-(4-(pyridin-2-yl)piperazine-1-carbonyl)benzyl)quinazoline-2,4(1H,3H)-dione]: the IC50 in assay [1] was 15 nM. Moreover, in assay [2], the EC50 was 87 nM.

`O=C(c1cccc(Cn2c(=O)[nH]c(=O)c3c(F)cccc32)c1)N1CCN(C(=O)c2cccs2)CC1` [Example 131, 5-Fluoro-1-(3-(4-(thiophene-2-carbonyl)piperazine-1-carbonyl)benzyl)quinazoline-2,4(1H,3H)-dione]: the IC50 in assay [1] was determined as 17 nM. The EC50 in assay [2] was 20 nM.

For `O=C(c1ccccc1)N1CCN(C(=O)c2cc(Cn3c(=O)[nH]c(=O)c4c(F)cccc43)ccc2F)CC1` [Example 137, 1-(3-(4-Benzoylpiperazine-1-carbonyl)-4-fluorobenzyl)-5-fluoroquinazoline-2,4(1H,3H)-dione], the IC50 in assay [1] came to 7 nM. The EC50 in assay [2] was determined as 2.1 nM.

As to `O=C(c1cccc(Cn2c(=O)[nH]c(=O)c3cccc(F)c32)c1)N1CCN(C(=O)C2CCCCC2)CC1` [Example 138, 1-(3-(4-(Cyclohexylcarbonyl)piperazine-1-carbonyl)benzyl)-8-fluoroquinazoline-2,4(1H,3H)-dione], the IC50 in assay [1] came out at 351 nM. The EC50 in assay [2] turned out to be 281 nM.

On to `O=C(c1cccc(Cn2c(=O)[nH]c(=O)c3cc(F)ccc32)c1)N1CCN(C(=O)c2cccs2)CC1` [Example 141, 6-Fluoro-1-(3-(4-(thiophene-2-carbonyl)piperazine-1-carbonyl)benzyl)quinazoline-2,4(1H,3H)-dione], for which the IC50 in assay [1] worked out at 12 nM. Besides, the EC50 in assay [2] is 13 nM.

In the case of `O=C(c1cccs1)N1CCN(C(=O)c2cc(Cn3c(=O)[nH]c(=O)c4cc(F)ccc43)ccc2F)CC1` [Example 146, 6-Fluoro-1-(4-fluoro-3-(4-(thiophene-2-carbonyl)piperazine-1-carbonyl)benzyl)quinazoline-2,4(1H,3H)-dione], the IC50 in assay [1] is 3.4 nM. Also, in assay [2], the EC50 is 4.1 nM.

As for `O=C(c1ccc(F)c(Cn2c(=O)[nH]c(=O)c3cc(F)ccc32)c1)N1CCN(C(=O)c2cccs2)CC1` [Example 151, 6-Fluoro-1-(6-fluoro-3-(4-(thiophene-2-carbonyl)piperazine-1-carbonyl)benzyl)quinazoline-2,4(1H,3H)-dione], the IC50 in assay [1] was determined as 18 nM. The EC50 in assay [2] stood at 5.2 nM.

For the compound `O=C(c1ccc(F)c(Cn2c(=O)[nH]c(=O)c3c(F)cccc32)c1)N1CCN(C(=O)c2cccs2)CC1` [Example 156, 5-Fluoro-1-(6-fluoro-3-(4-(thiophene-2-carbonyl)piperazine-1-carbonyl)benzyl)quinazoline-2,4(1H,3H)-dione], the IC50 in assay [1] came to 28 nM. Moreover, the EC50 in assay [2] was 14 nM.

For `O=C(c1ccc(F)c(Cn2c(=O)[nH]c(=O)c3c(F)cccc32)c1)N1CCN(C(=O)C2CCCC2)CC1` [Example 158, 1-(3-(4-(Cyclopentylcarbonyl)piperazine-1-carbonyl)-6-fluorobenzyl)-5-fluoroquinazoline-2,4(1H,3H)-dione], in assay [1], the IC50 amounted to 7.8 nM. Also, the EC50 in assay [2] is 8.6 nM.

On to `Cc1cccc2c1c(=O)[nH]c(=O)n2Cc1cccc(C(=O)N2CCN(c3ncccn3)CC2)c1` [Example 159, 5-Methyl-1-(3-(4-(pyrimidin-2-yl)piperazine-1-carbonyl)benzyl)quinazoline-2,4(1H,3H)-dione], for which the IC50 in assay [1] is 648 nM. The EC50 in assay [2] came to 220 nM.

On to `Cc1cccc2c1c(=O)[nH]c(=O)n2Cc1cccc(C(=O)N2CCN(C(=O)C3CCCC3)CC2)c1` [Example 160, 1-(3-(4-(Cyclopentylcarbonyl)piperazine-1-carbonyl)benzyl)-5-methylquinazoline-2,4(1H,3H)-dione], for which the IC50 in assay [1] worked out at 394 nM. In assay [2], the 50% effective concentration (EC50) came out at 261 nM.

With `O=C(c1cccc(Cn2c(=O)[nH]c(=O)c3ccc(Cl)cc32)c1)N1CCN(C(=O)C2CCCC2)CC1` [Example 162, 7-Chloro-1-(3-(4-(cyclopentylcarbonyl)piperazine-1-carbonyl)benzyl)quinazoline-2,4(1H,3H)-dione], the IC50 in assay [1] came out at 1190 nM. Further, in assay [2], the EC50 worked out at 495 nM.

As for `O=C(c1cc(Cn2c(=O)[nH]c(=O)c3c(F)cccc32)ccc1F)N1CCN(C(=O)C2CC2)CC1` [Example 163, 1-(3-(4-(Cyclopropylcarbonyl)piperazine-1-carbonyl)-4-fluorobenzyl)-5-fluoroquinazoline-2,4(1H,3H)-dione], the IC50 in assay [1] was found to be 28 nM. Moreover, the EC50 in assay [2] is 42 nM.

With `O=C(c1ccccc1)N1CCN(C(=O)c2cc(Cn3c(=O)[nH]c(=O)c4cc(Cl)ccc43)ccc2F)CC1` [Example 164, 6-Chloro-1-(3-(4-benzoylpiperazine-1-carbonyl)-4-fluorobenzyl)quinazoline-2,4(1H,3H)-dione], in assay [1], the IC50 is 6.2 nM. The EC50 in assay [2] came to 2.1 nM.

Turning to `O=C(c1cccc(Cn2c(=O)[nH]c(=O)c3c(F)cccc32)c1)N1CCN(C(=O)C2CCC2)CC1` [Example 165, 1-(3-(4-(Cyclobutylcarbonyl)piperazine-1-carbonyl)benzyl)-5-fluoroquinazoline-2,4(1H,3H)-dione], the IC50 in assay [1] came out at 49 nM. In addition, the EC50 in assay [2] was found to be 18 nM.

Consider `O=C(c1cc(Cn2c(=O)[nH]c(=O)c3c(F)cccc32)ccc1F)N1CCN(C(=O)C2CCC2)CC1` [Example 166, 1-(3-(4-(Cyclobutylcarbonyl)piperazine-1-carbonyl)-4-fluorobenzyl)-5-fluoroquinazoline-2,4(1H,3H)-dione], for which the IC50 in assay [1] is 4 nM. Also, the EC50 in assay [2] worked out at 1.6 nM.

Turning to `O=C(c1ccc(F)c(Cn2c(=O)[nH]c(=O)c3cc(Cl)ccc32)c1)N1CCN(C(=O)C2CCC2)CC1` [Example 167, 6-Chloro-1-(3-(4-(cyclobutylcarbonyl)piperazine-1-carbonyl)-6-fluorobenzyl)quinazoline-2,4(1H,3H)-dione], the IC50 in assay [1] came out at 5.7 nM. In assay [2], the EC50 was 5 nM.

In the case of `O=C(c1cc(Cn2c(=O)[nH]c(=O)c3cc(Cl)ccc32)ccc1F)N1CCN(C(=O)C2CCC2)CC1` [Example 169, 6-Chloro-1-(3-(4-(cyclobutylcarbonyl)piperazine-1-carbonyl)-4-fluorobenzyl)quinazoline-2,4(1H,3H)-dione], the IC50 in assay [1] is 3.4 nM. In assay [2], the EC50 turned out to be 1 nM.

Consider `O=C(c1ccc(F)c(Cn2c(=O)[nH]c(=O)c3c(Cl)cccc32)c1)N1CCN(C(=O)C2CCC2)CC1` [Example 170, 5-Chloro-1-(3-(4-(cyclobutylcarbonyl)piperazine-1-carbonyl)-6-fluorobenzyl)quinazoline-2,4(1H,3H)-dione], for which the IC50 in assay [1] was 120 nM. Also, in assay [2], the EC50 came to 43 nM.

On to `O=C(c1ccc(F)c(Cn2c(=O)[nH]c(=O)c3c(Cl)cccc32)c1)N1CCN(C(=O)c2cccs2)CC1` [Example 171, 5-Chloro-1-(6-fluoro-3-(4-(thiophene-2-carbonyl)piperazine-1-carbonyl)benzyl)quinazoline-2,4(1H,3H)-dione], for which the IC50 in assay [1] turned out to be 70 nM. The EC50 in assay [2] is 23 nM.

In the case of `O=C(c1ccc(F)c(Cn2c(=O)[nH]c(=O)c3c(Cl)cccc32)c1)N1CCN(c2ccccn2)CC1` [Example 173, 5-Chloro-1-(6-fluoro-3-(4-(pyridin-2-yl)piperazine-1-carbonyl)benzyl)quinazoline-2,4(1H,3H)-dione], in assay [1], the IC50 was 228 nM. The half-maximal effective concentration (EC50) in assay [2] was 122 nM.

The values above are taken from patent US9926304B2, “1-(arylmethyl)quinazoline-2,4(1H,3H)-diones as PARP inhibitors and the use thereof” (Impact Therapeutics, Inc., priority 2011, dated 2018).
